In ChEMBL document CHEMBL6182833, “Design, synthesis and antiviral evaluation of triazole-linked 7-hydroxycoumarin-monoterpene conjugates as inhibitors of RSV replication” (RSC Med Chem, 2025):
Active and inactive are the calls of the source. No cut-off for these calls is given here.

Key:
HEp-2 = experiment: Cytotoxicity against human HEp-2 cells assessed as cell growth inhibition measured after 24 hrs by MTT assay; format: functional
Human orthopneumovirus [1] = experiment: Antiviral activity against Respiratory syncytial virus type A infected in human HEp-2 cells assessed as inhibition of viral replication preincubated with cells followed by viral infection for 1 hr followed by virus washout and further incubated with compound for 6 days by ELISA method; format: functional, organism-based
[2] = Selectivity index, ratio of CC50 for human HEp-2 cells to IC50 for Respiratory syncytial virus type A infected in human HEp-2 cells; format: cell-based; details: read-out: Ratio CC50/IC50
Human orthopneumovirus [3] = experiment: Antiviral activity against Respiratory syncytial virus type B infected in human HEp-2 cells assessed as inhibition of viral replication preincubated with cells followed by viral infection for 1 hr followed by virus washout and further incubated with compound for 6 days by ELISA method; format: functional, organism-based
[4] = Selectivity index, ratio of CC50 for human HEp-2 cells to IC50 for Respiratory syncytial virus type B infected in human HEp-2 cells; format: cell-based; details: read-out: Ratio CC50/IC50
Human orthopneumovirus [5] = experiment: Antiviral activity against Respiratory syncytial virus type A infected in human HEp-2 cells assessed as inhibition of viral replication preincubated with cells and simultaneously with virus and measured after 25 hrs by ELISA method; format: functional, organism-based
Human orthopneumovirus [6] = experiment: Antiviral activity against Respiratory syncytial virus type A infected in human HEp-2 cells assessed as inhibition of viral replication preincubated with cells followed by compound washout followed by viral infection and measured after 25 hrs by ELISA method; format: functional, organism-based

Compound	CC50 (HEp-2)	IC50 (Human orthopneumovirus [1]; read-out: IC50)	selectivity ratio [2]	IC50 (Human orthopneumovirus [3]; read-out: IC50)	selectivity ratio [4]	Activity (Human orthopneumovirus [5])	Activity (Human orthopneumovirus [6])	IC50 (Human orthopneumovirus [1]; read-out: pIC50 (converted))	IC50 (Human orthopneumovirus [3]; read-out: pIC50 (converted))	EC50 (Human orthopneumovirus [3])
CC1(C)[C@H]2CC=C(Cn3cc(COc4ccc5c6c(c(=O)oc5c4)CCCC6)nn3)[C@@H]1C2	30.1 µM	0.6 µM	50	1.3 µM	23.3	Weak_effect	Weak_effect			
Cc1cc(=O)oc2cc(OCc3cn(CC4=CC[C@@H]5C[C@H]4C5(C)C)nn3)ccc12	22.2 µM	6.6 µM	3.3	7.6 µM	2.9					
CC1(C)[C@@H]2CC=C(COc3ccc4c5c(c(=O)oc4c3)CCCC5)[C@H]1C2	380 µM	5.1 µM	77	4.9 µM	78.2			6.17 µM		
CC1(C)[C@@H]2CC=C(Cn3cc(COc4ccc5c(-c6ccccc6)cc(=O)oc5c4)nn3)[C@H]1C2	43.4 µM	4.2 µM	10	6.3 µM	6.8					
NC(=O)c1ncn([C@@H]2O[C@H](CO)[C@@H](O)[C@H]2O)n1 [RIBAVIRIN]	> 4100 µM	31.1 µM		54.5 µM						
CC1(C)[C@@H]2CC=C(Cn3cc(COc4ccc5c6c(c(=O)oc5c4)CCC6)nn3)[C@H]1C2	52.7 µM	6.9 µM	7.6	7.2 µM	7.3					
CC(C)c1ccc(Cn2cc(COc3ccc4c5c(c(=O)oc4c3)CCC5)nn2)cc1	38.5 µM	21.7 µM	1.8	25.6 µM	1.5					
CC(C)=CCC/C(C)=C\Cn1cc(COc2ccc3c(C)cc(=O)oc3c2)nn1	14.7 µM	< 0.2 µM	> 96	1.1 µM	13.4			0.151 µM	1.1 µM	
Cc1cc(=O)oc2cc(OCc3cn(CCC(C)CCCC(C)C)nn3)ccc12 (stereo not drawn)	16.1 µM	4.3 µM	3.8	3.9 µM	4.1			4.27 µM	3.89 µM	
CC1(C)[C@@H]2CC=C(Cn3cc(COc4ccc5c6c(c(=O)oc5c4)CCCC6)nn3)[C@H]1C2	25.5 µM	4.1 µM	6.3	3.5 µM	7.2			4.07 µM		
CC1(C)[C@H]2CC=C(COc3ccc4c5c(c(=O)oc4c3)CCC5)[C@@H]1C2	13.4 µM	> 13 µM	< 1		0.9					> 13 µM
Cc1cc(=O)oc2cc(OCC3=CC[C@H]4C[C@@H]3C4(C)C)ccc12	796 µM	29 µM	27.4	241 µM	3.3					
Cc1cc(=O)oc2cc(OCc3cn(CC4=CC[C@H]5C[C@@H]4C5(C)C)nn3)ccc12	14.3 µM	6.4 µM	2.2	7 µM	2					
CC(C)=CCC/C(C)=C/CCOc1ccc2c(C)cc(=O)oc2c1	483 µM	46.7 µM	10.3	52.4 µM	9.2					
CC(C)c1ccc(Cn2cc(COc3ccc4c(-c5ccccc5)cc(=O)oc4c3)nn2)cc1	85.7 µM	4.9 µM	17	6.6 µM	12.9					
CC1(C)[C@H]2CC=C(COc3ccc4c5c(c(=O)oc4c3)CCCC5)[C@@H]1C2	334 µM	108 µM	3.5	60.5 µM	5.5					

Compound	CC50 (HEp-2)	IC50 (Human orthopneumovirus [1]; read-out: IC50)	selectivity ratio [2]	IC50 (Human orthopneumovirus [3]; read-out: IC50)	selectivity ratio [4]	Activity (Human orthopneumovirus [5])	Activity (Human orthopneumovirus [6])	IC50 (Human orthopneumovirus [1]; read-out: pIC50 (converted))	IC50 (Human orthopneumovirus [3]; read-out: pIC50 (converted))	EC50 (Human orthopneumovirus [3])
Cc1cc(=O)oc2cc(OCc3cn(Cc4ccc(C(C)C)cc4)nn3)ccc12	20 µM	2.2 µM	9	3.2 µM	6.3					
CC(C)=CCCC(C)=CCn1cc(COc2ccc3c(-c4ccccc4)cc(=O)oc3c2)nn1	12.3 µM	0.3 µM	37	11.3 µM	1.1			5.75 µM	11.2 µM	
CC1(C)[C@H]2CC=C(Cn3cc(COc4ccc5c6c(c(=O)oc5c4)CCC6)nn3)[C@@H]1C2	278 µM	629 µM	0.4	256 µM	1.1					
CC(C)=CCCC(C)=CCn1cc(COc2ccc3c4c(c(=O)oc3c2)CCC4)nn1	19.1 µM	5.7 µM	3.3	6.5 µM	2.9			5.75 µM	6.46 µM	
CC(C)=CCC/C(C)=C/CCOc1ccc2c3c(c(=O)oc2c1)CCCC3	51.1 µM	0.57 µM	90	0.6 µM	85.2					
Cc1cc(=O)oc2cc(OCC3=CC[C@@H]4C[C@H]3C4(C)C)ccc12	116 µM	1.3 µM	90	4.7 µM	24.7					
CC(C)CCCC(C)CCn1cc(COc2ccc3c(-c4ccccc4)cc(=O)oc3c2)nn1 (stereo not drawn)	14.6 µM	4.1 µM	3.5	5.2 µM	2.8			1.66 µM	0.229 µM	
CC(C)=CCC/C(C)=C/CCOc1ccc2c3c(c(=O)oc2c1)CCC3	26.6 µM	> 26 µM	< 1		1.8					15.2 µM
CC(C)c1ccc(Cn2cc(COc3ccc4c5c(c(=O)oc4c3)CCCC5)nn2)cc1	37.7 µM	22.1 µM	1.7	23.5 µM	1.6					
CC(C)=CCCC(C)=CCn1cc(COc2ccc3c4c(c(=O)oc3c2)CCCC4)nn1	279 µM	0.46 µM	605	1.2 µM	233	inactive		0.457 µM	1.2 µM	
CC1(C)[C@@H]2CC=C(COc3ccc4c5c(c(=O)oc4c3)CCC5)[C@H]1C2	416 µM	4.1 µM	100		81.6					5.1 µM
CC(C)CCCC(C)CCn1cc(COc2ccc3c4c(c(=O)oc3c2)CCC4)nn1 (stereo not drawn)	264 µM	1.7 µM	160	0.23 µM	1150	Weak_effect	Weak_effect	4.07 µM	5.25 µM	
CC(C)=CCC/C(C)=C/Cn1cc(COc2ccc3c(C)cc(=O)oc3c2)nn1	15 µM	6.1 µM	2.5	8.2 µM	1.8			6.17 µM	0.151 µM	
CC(C)CCCC(C)CCn1cc(COc2ccc3c4c(c(=O)oc3c2)CCCC4)nn1 (stereo not drawn)	22.2 µM	3.7 µM	6.1	4.5 µM	4.9			3.72 µM	4.47 µM	
CC1(C)[C@H]2CC=C(Cn3cc(COc4ccc5c(-c6ccccc6)cc(=O)oc5c4)nn3)[C@@H]1C2	13.7 µM	< 0.2 µM	> 88	1.6 µM	8.5					
